Experimental findings from ChEMBL document CHEMBL1201862, “PubChem BioAssay data set” (2004) are described below.

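96-well plates; 48 h exposure; 5 concentrations. Endpoints by linear interpolation between flanking doses. Not reached: highest tested concentration assigned. GI50: concentration for 50% inhibition of growth.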 The source made the active and inactive calls. Cut-off read from the data, not from the text of the source: active = GI50 up to about 1.1 µM and inactive = higher.

Common to all, as to assay: NCI-60 cell line screen, 48 h
Test [1] concerns 786-0.
The test system of test [2] is DU-145.
Test [3] concerns EKVX.
The test system of test [4] is HCC 2998.
In test [5] the test system is HCT-15.
The subject of test [6] is MDA-MB-435.
Test [7] concerns Malme-3M.
Test [8] relates to NCI-H23.
Test [9] has as its system OVCAR-3.
For test [10], the system named is RPMI-8226.
Test [11] deals with RXF 393.
In test [12] the test system is SF-295.
Test [13] has as its system SF-539.
For test [14], the system named is SK-MEL-2.
In test [15] the test system is SR.
Test [16] has as its system SW-620.
Test [17] deals with UACC-62.
Test [18] relates to UO-31.
The subject of test [19] is MDA-N.
Test [20] has as its system SNB-75.

In the case of `Cc1csc2nc(-c3cc([N+](=O)[O-])c(Cl)cc3Cl)c(/C=N/N=C(N)N)n12`, the GI50 in [1] was 19.5 µM (inactive); in test [2] it was 16.7 µM (inactive); in [3], 19.7 µM (inactive); in test [4], 7.19 µM (inactive); in test [5] it was 21.2 µM; in [6], 17.1 µM (inactive). In addition, the GI50 in [7] was 17.8 µM (inactive); in test [8] it was 16.4 µM (inactive); in [9], 17 µM (inactive); in test [10], 16.7 µM (inactive); in [11] it was 15.9 µM (inactive); in [12], 17.8 µM (inactive). Moreover, the GI50 in test [13] was 18.7 µM (inactive); in test [14] it was 13.4 µM (inactive); in [15] it was 0.0678 µM (active); in test [16], 17.2 µM (inactive); in [17], 14.2 µM (inactive); in test [18] it was 16 µM (inactive).

As to `N#Cc1ccc(-c2nc3cc(Cl)ccc3[nH]2)cc1`, the GI50 in [1] was > 100 µM (inactive); in test [3], 23.1 µM (inactive); in test [4], 38.1 µM (inactive); in test [5], 39.9 µM; in test [19] it was 49.1 µM (inactive); in [9], 54.7 µM (inactive). Also, the GI50 in test [10] is > 100 µM (inactive); in test [11], > 100 µM (inactive); in test [12], 44.6 µM (inactive); in test [13] it was > 100 µM (inactive); in [14], > 100 µM (inactive); in test [20], > 100 µM (inactive). For the same compound, the GI50 in test [15] was 80 µM (inactive); in test [16], > 100 µM (inactive); in [18], 27.6 µM (inactive).

As for `CCOC(=O)/C(C#N)=C(/NS(=O)(=O)c1cc(C)c(Cl)cc1[S-])[n+]1ccc(N(C)C)cc1`, the GI50 in test [1] is > 100 µM (inactive); in test [2] it was > 100 µM (inactive); in test [3] it was > 100 µM (inactive); in test [4], > 100 µM (inactive); in test [5] it was more than 100 µM; in test [6] it was > 100 µM (inactive). The GI50 in test [7], in [8], in test [9], in test [10], in test [11] and in [12] was > 100 µM (inactive) in each case. Also, the GI50 in test [13], in [14], in [15], in test [17] and in test [18] was > 100 µM (inactive) throughout.

Consider `CC(=O)Nc1ccc2nc(-c3cccc(Cl)c3)cc(O)c2c1`, for which the GI50 is 13.4 µM (inactive) in test [1]; > 100 µM (inactive) in test [3]; 8.38 µM (inactive) in test [4]; 2.35 µM (inactive) in test [6]; 3.18 µM (inactive) in test [7]; 35.6 µM (inactive) in [8]. Besides, the GI50 was 66.1 µM (inactive) in test [10]; 4.71 µM (inactive) in [13]; 4.4 µM (inactive) in test [20]; 5.37 µM (inactive) in test [15]; 4.41 µM (inactive) in test [16]; 2.42 µM (inactive) in test [17].

Consider `[O-][Cl+3]([O-])([O-])[O-].c1ccc(C[P+]2(c3ccccc3)CCCCC2)cc1`, for which the GI50 in [1] was > 100 µM (inactive); in test [3] it was > 100 µM (inactive); in test [4] it was 70.8 µM (inactive); in test [5], more than 100 µM; in test [7] it was > 100 µM (inactive); in [8], > 100 µM (inactive). For the same compound, the GI50 was 73.1 µM (inactive) in [9]; 34.7 µM (inactive) in test [10]; > 100 µM (inactive) in test [11]; > 100 µM (inactive) in test [12]; > 100 µM (inactive) in test [13]; 95.5 µM (inactive) in [14]. The GI50 in test [20] is 88.9 µM (inactive); in test [15] it was 86.7 µM (inactive); in [16], > 100 µM (inactive); in test [17] it was 61.7 µM (inactive); in test [18] it was > 100 µM (inactive).

For the compound `CCOC(=O)c1nc2cc(C(F)(F)F)ccc2nc1Nc1ccc(C(=O)OC)s1`, the GI50 in [1] is 29.6 µM (inactive); in test [2], 54.6 µM (inactive); in test [3] it was 45.9 µM (inactive); in test [4], 36.1 µM (inactive); in test [5], 34.2 µM; in test [6] it was 47.2 µM (inactive). Besides, the GI50 in [7] is 38.5 µM (inactive); in test [8], 30 µM (inactive); in test [9] it was 19.3 µM (inactive); in [10], 30.7 µM (inactive); in test [11], 16.8 µM (inactive); in [12], 43 µM (inactive). In addition, the GI50 in test [14] is 19.4 µM (inactive); in test [20], 56.1 µM (inactive); in [15], 15.5 µM (inactive); in [16] it was 49.1 µM (inactive); in test [17] it was 23.2 µM (inactive); in test [18] it was 33.3 µM (inactive).

For `C/C(C=O)=N\Nc1cc(C)c2ccccc2n1`, the GI50 in test [1] was 14.2 µM (inactive); in test [2], 15.5 µM (inactive); in test [3], 16.9 µM (inactive); in test [4], 15.1 µM (inactive); in test [5] it was 10 µM; in test [6], 16 µM (inactive). Also, the GI50 in test [8] is 12.4 µM (inactive); in test [9], 2.62 µM (inactive); in test [10] it was 11.9 µM (inactive); in test [11], 17.5 µM (inactive); in test [12] it was 15.2 µM (inactive); in test [13], 11.7 µM (inactive). The GI50 in test [14] was 15.2 µM (inactive); in test [20] it was 15.1 µM (inactive); in [15], 1.7 µM (inactive); in test [16], 24.7 µM (inactive); in test [17] it was 14.7 µM (inactive); in test [18], 14.9 µM (inactive).

Take `Nc1cc(N2CCCC2)nc(=O)n1Cc1ccccc1`: the GI50 is > 100 µM (inactive) in [1]; > 100 µM (inactive) in test [2]; > 100 µM (inactive) in test [3]; more than 100 µM in test [5]; > 100 µM (inactive) in test [6]; > 100 µM (inactive) in [7]. The GI50 in test [8], in test [10], in test [12], in test [13], in test [14] and in [20] was > 100 µM (inactive) each time. The GI50 in test [15] and in [16] was > 100 µM (inactive) in each case.

As to `O=C(Nc1cccc(C(F)(F)F)c1)C(=O)C1NC(=S)NC1=O` (configuration not stated), the GI50 was > 100 µM (inactive) in [1]; > 100 µM (inactive) in [3]; > 100 µM (inactive) in test [4]; 35.3 µM in test [5]; > 100 µM (inactive) in test [7]; > 100 µM (inactive) in test [8]. For the same compound, the GI50 in test [9], in test [10], in test [11], in [12], in test [13] and in test [14] was > 100 µM (inactive) throughout. Besides, the GI50 in test [20] is > 100 µM (inactive); in test [15], > 100 µM (inactive); in test [16], 17.7 µM (inactive); in test [17] it was > 100 µM (inactive); in test [18] it was > 100 µM (inactive).

Turning to `COc1ccc2c(c1)-c1c(c3cc(OC)ccc3n1CCN1CCOCC1)CC2`, the GI50 in [1] was 20.2 µM (inactive); in [2], 37.8 µM (inactive); in test [4], 1.76 µM (inactive); in test [5] it was 14.5 µM; in test [6], 49.1 µM (inactive); in [7], 28.2 µM (inactive). Besides, the GI50 was 52.1 µM (inactive) in test [8]; 46.1 µM (inactive) in test [9]; 20.5 µM (inactive) in [10]; 27.1 µM (inactive) in test [11]; 18.9 µM (inactive) in [12]; 28.4 µM (inactive) in test [13]. The GI50 is 55.2 µM (inactive) in test [14]; 19.8 µM (inactive) in test [20]; 3.94 µM (inactive) in test [15]; 33.7 µM (inactive) in [16]; 16.8 µM (inactive) in [17]; 24.5 µM (inactive) in test [18].

Regarding `COC1=CC(=O)N(C(=O)C2CSC(C(CO)NC(=O)c3csc(/C=N/O)n3)=N2)C1` (configuration not stated), the GI50 was > 100 µM (inactive) in test [1]; > 100 µM (inactive) in test [2]; > 100 µM (inactive) in [3]; more than 100 µM in test [5]; > 100 µM (inactive) in test [6]; 64.4 µM (inactive) in [7]. In addition, the GI50 in [8], in test [9], in test [10], in test [12], in test [13] and in test [14] was > 100 µM (inactive) throughout. Besides, the GI50 was 0.302 µM (active) in [20], > 100 µM (inactive) in test [15], > 100 µM (inactive) in test [16] and > 100 µM (inactive) in test [17].

With `Cc1cc(C)c2c(n1)S(=O)(=O)N(CCCN1CCN(c3cccc(Cl)c3)CC1)C(C(=O)c1ccc(Br)cc1)=C2O`, the GI50 is 12.1 µM (inactive) in test [1]; 26.4 µM (inactive) in [2]; 19.3 µM (inactive) in test [3]; 16.7 µM in [5]; 18.2 µM (inactive) in [6]; 24.7 µM (inactive) in test [7]. In addition, the GI50 is 33.5 µM (inactive) in test [8]; 16.8 µM (inactive) in test [9]; 23.8 µM (inactive) in [11]; 18.9 µM (inactive) in test [12]; 20.7 µM (inactive) in [13]; 20.5 µM (inactive) in test [14]. In addition, the GI50 in test [20] is 10.3 µM (inactive); in test [15], 13.4 µM (inactive); in test [16], 34.1 µM (inactive); in test [17] it was 31.6 µM (inactive); in test [18], 7.1 µM (inactive).
